#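 Growth conditions: 96-well plates. Treatment: test compound, 48 hours, 5 concentrations. Analysis: linear interpolation between bracketing concentrations; unreached endpoints set to highest concentration. GI50 is the concentration that inhibits growth by half.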 Active and inactive are the calls of the source. Cut-off read from the data, not from the text of the source: active = GI50 up to about 1.1 µM and inactive = higher.
# Columns and labels:
# Experiment in all cases: NCI-60 cell line screen, 48 h
# [1] = test system: 786-0
# [2] = test system: A498
# [3] = test system: A549
# [4] = test system: ACHN
# [5] = test system: CAKI-1
# [6] = test system: CCRF-CEM
# [7] = test system: COLO 205
# [8] = test system: DLD-1
# [9] = test system: DMS-114
# [10] = test system: DMS-273
# [11] = test system: EKVX
# [12] = test system: HCC 2998
# [13] = test system: HCT-116
# [14] = test system: HCT-15
# [15] = test system: HL-60
# [16] = test system: HOP-18
# [17] = test system: HOP-62
# [18] = test system: HOP-92
# [19] = test system: HT-29
# [20] = test system: IGROV-1
# [21] = test system: K562
# [22] = test system: KM-20L2
# [23] = test system: KM12
# [24] = test system: LOX IMVI
# [25] = test system: LXFL 529
# [26] = test system: M14
# [27] = test system: M19-MEL
# [28] = test system: MOLT-4
# [29] = test system: Malme-3M
# [30] = test system: NCI-H226
# [31] = test system: NCI-H23
# [32] = test system: NCI-H460
# [33] = test system: NCI-H522
# [34] = test system: OVCAR-3
# [35] = test system: OVCAR-4
# [36] = test system: OVCAR-5
# [37] = test system: OVCAR-8
# [38] = test system: RPMI-8226
# [39] = test system: RXF 393
# [40] = test system: RXF 631
# [41] = test system: SF-268
# [42] = test system: SF-295
# [43] = test system: SF-539
# [44] = test system: SK-MEL-28
# [45] = test system: SK-MEL-2
# [46] = test system: SK-MEL-5
# [47] = test system: SK-OV-3
# [48] = test system: SN12C
# [49] = test system: SNB-19
# [50] = test system: SNB-75
# [51] = test system: SNB-78
# [52] = test system: SW-620
# [53] = test system: TK-10
# [54] = test system: U-251
# [55] = test system: UACC-257
# [56] = test system: UACC-62
# [57] = test system: UO-31
# [58] = test system: XF498
# [59] = test system: SR
structure (smiles),measurement,setting,value
Cc1nc2ccccc2c(=O)n1/N=C(\N=N\c1ccccc1)c1ccccc1Cl,GI50,[1],44.8 µM (inactive)
same,GI50,[2],20.6 µM (inactive)
same,GI50,[3],52.5 µM (inactive)
same,GI50,[4],33.3 µM (inactive)
same,GI50,[5],25.4 µM (inactive)
same,GI50,[6],26.7 µM (inactive)
same,GI50,[7],> 100 µM (inactive)
same,GI50,[8],42.6 µM (inactive)
same,GI50,[9],26 µM (inactive)
same,GI50,[10],41 µM (inactive)
same,GI50,[11],22.4 µM (inactive)
same,GI50,[12],38.2 µM (inactive)
same,GI50,[13],> 10 µM (inactive)
same,GI50,[14],48.1 µM
same,GI50,[15],33.3 µM (inactive)
same,GI50,[16],13.6 µM (inactive)
same,GI50,[17],32.1 µM (inactive)
same,GI50,[18],25 µM (inactive)
same,GI50,[19],43.8 µM (inactive)
same,GI50,[20],39.9 µM (inactive)
same,GI50,[21],30.6 µM (inactive)
same,GI50,[22],65.5 µM (inactive)
same,GI50,[23],41.4 µM (inactive)
same,GI50,[24],66.1 µM (inactive)
same,GI50,[25],24.3 µM (inactive)
same,GI50,[26],> 86.7 µM (inactive)
same,GI50,[27],> 84.5 µM (inactive)
same,GI50,[28],14.8 µM (inactive)
same,GI50,[29],53 µM (inactive)
same,GI50,[30],14.5 µM (inactive)
same,GI50,[31],27.7 µM (inactive)
same,GI50,[32],24 µM (inactive)
same,GI50,[33],30.2 µM (inactive)
same,GI50,[34],27 µM (inactive)
same,GI50,[35],41 µM (inactive)
same,GI50,[36],> 100 µM (inactive)
same,GI50,[37],59.7 µM (inactive)
same,GI50,[38],20.4 µM (inactive)
same,GI50,[39],21.6 µM (inactive)
same,GI50,[40],> 71.4 µM (inactive)
same,GI50,[41],39 µM (inactive)
same,GI50,[42],1.04 µM (active)
same,GI50,[43],23.5 µM (inactive)
same,GI50,[44],79.3 µM (inactive)
same,GI50,[45],20.7 µM (inactive)
same,GI50,[46],38.3 µM (inactive)
same,GI50,[47],11.2 µM (inactive)
same,GI50,[48],32.4 µM (inactive)
same,GI50,[49],48.1 µM (inactive)
same,GI50,[50],23.8 µM (inactive)
same,GI50,[51],30.2 µM (inactive)
same,GI50,[52],> 88.5 µM (inactive)
same,GI50,[53],38.9 µM (inactive)
same,GI50,[54],40.6 µM (inactive)
same,GI50,[55],75 µM (inactive)
same,GI50,[56],54.6 µM (inactive)
same,GI50,[57],29.2 µM (inactive)
same,GI50,[58],18.7 µM (inactive)
CC(CNCCCNCCNCCCNCO)[N+](=O)[O-] (centres undefined),GI50,[1],15.7 µM (inactive)
same,GI50,[2],17.5 µM (inactive)
same,GI50,[3],21.9 µM (inactive)
same,GI50,[4],16.7 µM (inactive)
same,GI50,[5],6.11 µM (inactive)
same,GI50,[6],2.75 µM (inactive)
same,GI50,[7],6.52 µM (inactive)
same,GI50,[8],3.63 µM (inactive)
same,GI50,[9],16.6 µM (inactive)
same,GI50,[10],16.5 µM (inactive)
same,GI50,[11],16 µM (inactive)
same,GI50,[12],16.6 µM (inactive)
same,GI50,[13],10.8 µM (inactive)
same,GI50,[14],10.8 µM
same,GI50,[15],3.89 µM (inactive)
same,GI50,[16],14.7 µM (inactive)
same,GI50,[17],> 100 µM (inactive)
same,GI50,[18],2.65 µM (inactive)
same,GI50,[19],21.3 µM (inactive)
same,GI50,[20],20.4 µM (inactive)
same,GI50,[21],3.44 µM (inactive)
same,GI50,[22],16.9 µM (inactive)
same,GI50,[23],16.1 µM (inactive)
same,GI50,[24],14.4 µM (inactive)
same,GI50,[25],3.99 µM (inactive)
same,GI50,[26],11.4 µM (inactive)
same,GI50,[28],4.12 µM (inactive)
same,GI50,[29],2.07 µM (inactive)
same,GI50,[31],15 µM (inactive)
same,GI50,[32],17.2 µM (inactive)
same,GI50,[34],16.5 µM (inactive)
same,GI50,[35],14.5 µM (inactive)
same,GI50,[36],13.9 µM (inactive)
same,GI50,[37],14.4 µM (inactive)
same,GI50,[38],5.06 µM (inactive)
same,GI50,[39],15.8 µM (inactive)
same,GI50,[40],16 µM (inactive)
same,GI50,[41],15.7 µM (inactive)
same,GI50,[42],> 100 µM (inactive)
same,GI50,[43],15.4 µM (inactive)
same,GI50,[44],13.6 µM (inactive)
same,GI50,[45],15.5 µM (inactive)
same,GI50,[46],16.3 µM (inactive)
same,GI50,[47],> 100 µM (inactive)
same,GI50,[48],15.1 µM (inactive)
same,GI50,[49],> 100 µM (inactive)
same,GI50,[50],20.8 µM (inactive)
same,GI50,[51],20.6 µM (inactive)
same,GI50,[59],3.39 µM (inactive)
same,GI50,[52],3.6 µM (inactive)
same,GI50,[53],2.49 µM (inactive)
same,GI50,[54],15.9 µM (inactive)
same,GI50,[55],13.3 µM (inactive)
same,GI50,[56],16 µM (inactive)
same,GI50,[57],16.9 µM (inactive)
same,GI50,[58],16.1 µM (inactive)
